Measured values taken from patent publication US20160345582A1, “HERBICIDE COMPOSITIONS FOR WEED CONTROL” (Valent U.S.A., Corporation, priority 2015, published 2016).

Key:
[1] = test system: Fall Panicum; assay: Field test 2013 (Example 2), post emergence weed control in corn; type: in vivo; conditions: Study 3; 30 DAT; mesotrione 105, pyroxasulfone 90 g ai/ha; applied at V5 corn stage
[2] = test system: Waterhemp; assay: as above; type: in vivo, Amaranthus tuberculatus; conditions: 30 DAT, applied at V5 corn stage
[3] = test system: Giant Foxtail; assay: as above; type: in vivo, Setaria faberi; conditions: Study 5; 30 DAT; topramezone 18.4, pyroxasulfone 90, atrazine 840 g ai/ha; applied at V5 corn stage
[4] = test system: Yellow Nutsedge; assay: Field test 2011 (Example 1), post emergence weed control in corn; type: in vivo, Cyperus esculentus; conditions: Study 1; 30 DAT; topramezone 18.4, pyroxasulfone 90 g ai/ha; applied at V5 corn stage, weeds 4 to 10 inches
Description: (§1) In 2011, two field tests were conducted using similar protocols. Both studies were completed in Indiana, United States. Weeds were 4 to 10 inches in height at time of application. Untreated checks were included in the trial, however pyroxasulfone alone is not effective for post emergence weed control and was therefore not included as a standalone treatment. Roundup Ready corn (Zea maize) was used in the test as the crop plant utilizing a natural population of weeds. All of the treatments contained non-ionic surfactant at 0.25% v/v and were applied at the V5 corn growth stage. Applications were made utilizing a hand boom sprayer with application area for each treatment equating to 10 feet by 200 feet.
(§2) Topramezone was administered at 18.4 grams/hectare. Pyroxasulfone was administered at 90 grams/hectare.
(§3) Thirty days after treatment (“DAT”) readings were taken to determine the survival of Ivyleaf Morningglory, Yellow Nutsedge, Velvetleaf and Annual Grass. Survival ratings were taken by counting the number of alive and dead plants at the time of the reading. All data was analyzed using Bartlett's test and with p value of […] for determining significance of the results. The Effect of Topamezone and Pyroxasulfone on Weeds (% Control).”

[5] = test system: Giant Ragweed; assay: Field test 2013 (Example 2), post emergence weed control in corn; type: in vivo, Ambrosia trifida; conditions: Study 7; 30 DAT; topramezone 18.4, pyroxasulfone 90 g ai/ha; applied at V5 corn stage
[6] = test system: Ivyleaf Morningglory; assay: Field test 2011 (Example 1), post emergence weed control in corn; type: in vivo, Ipomoea hederacea; conditions: Study 1; 30 DAT; topramezone 18.4, pyroxasulfone 90 g ai/ha; applied at V5 corn stage, weeds 4 to 10 inches
Description: as §1, §2, §3

[7] = test system: Barnyardgrass; assay: Field test 2013 (Example 2), post emergence weed control in corn; type: in vivo, Echinochloa crus-galli; conditions: 30 DAT, topramezone 18.4, pyroxasulfone 90 g ai/ha, applied at V5 corn stage
[8] = test system: Velvetleaf; assay: Field test 2011 (Example 1), post emergence weed control in corn; type: in vivo, Abutilon theophrasti; conditions: Study 2; 30 DAT; topramezone 18.4, pyroxasulfone 90 g ai/ha; applied at V5 corn stage, weeds 4 to 10 inches
Description: as §1, §2, §3

[9] = test system: Annual Grass; assay: as above; type: in vivo; conditions: Study 2; 30 DAT; topramezone 18.4, pyroxasulfone 90 g ai/ha; applied at V5 corn stage, weeds 4 to 10 inches
Description: as §1, §2, §3

[10] = test system: Broadleaf signalgrass; assay: Field test 2013 (Example 2), post emergence weed control in corn; type: in vivo, Brachiaria platyhylla; conditions: Study 7; 30 DAT; topramezone 18.4, pyroxasulfone 90 g ai/ha; applied at V5 corn stage
[11] = test system: Palmer Amaranth; assay: as above; type: in vivo, Amaranthus palmeri; conditions: Study 7; 30 DAT; topramezone 18.4, pyroxasulfone 90 g ai/ha; applied at V5 corn stage
[12] = test system: Yellow Nutsedge; assay: as above; type: in vivo, Cyperus esculentus; conditions: Study 7; 30 DAT; topramezone 18.4, pyroxasulfone 90 g ai/ha; applied at V5 corn stage
[13] = test system: Foxtail; assay: as above; type: in vivo, Setaria species; conditions: Study 6; 30 DAT; topramezone 18.4, pyroxasulfone 90 g ai/ha; applied at V5 corn stage
[14] = test system: Common Ragweed; assay: as above; type: in vivo, Ambrosia artemisiifolia; conditions: Study 4; 30 DAT; topramezone 18.4, pyroxasulfone 90 g ai/ha; applied at V5 corn stage
[15] = test system: Velvetleaf; assay: as above; type: in vivo, Abutilon theophrasti; conditions: Study 9; 30 DAT; topramezone 18.4, pyroxasulfone 90 g ai/ha; applied at V5 corn stage

Row | Compound | % Control Fall Panicum [1] | % Control Waterhemp ([2]; Study 3, mesotrione 105, pyroxasulfone 90 g ai/ha) | % Control Giant Foxtail [3] | % Control Yellow Nutsedge [4] | % Control Giant Ragweed [5] | % Control Ivyleaf Morningglory [6] | % Control Barnyardgrass ([7]; Study 7) | % Control Barnyardgrass ([7]; Study 9) | % Control Velvetleaf [8] | % Control Annual Grass [9] | % Control Waterhemp ([2]; Study 6, topramezone 18.4, pyroxasulfone 90 g ai/ha) | % Control Waterhemp ([2]; Study 8, topramezone 18.4, pyroxasulfone 90 g ai/ha) | % Control Broadleaf signalgrass [10] | % Control Palmer Amaranth [11] | % Control Yellow Nutsedge [12] | % Control Foxtail [13] | % Control Common Ragweed [14] | % Control Velvetleaf [15]
1 | CS(=O)(=O)c1ccc(C(=O)C2C(=O)CCCC2=O)c([N+](=O)[O-])c1 [Mesotrione, 2[4-(methylsulfonyl)-2-nitrobenzoyl]cyclohexane-1,3-dione] | 98% | 80% |  |  |  |  |  |  |  |  |  |  |  |  |  |  |  | 
2 | Cc1c(C(=O)c2cnn(C)c2O)ccc(S(C)(=O)=O)c1C1=NOCC1 [Topramezone, [3-(4,5-dihydro-1,2-oxazol-3-yl)-4-mesyl-o-tolyl](5-hydroxy-1-methylpyrazol-4-yl)methanone] |  |  | 87% | 73% | 91% | 68% | 80% | 93% | 95% | 33% | 94% | 90% | 90% | 93% | 60% | 98% | 94% | 90%
